Data on three compounds can be found in patent US9855256B2, “Cyclooxygenase inhibitor and calcium channel antagonist compositions and methods for use in urological procedures” (Omeros Corporation, priority 2005, dated 2018).

Each structure is given as a SMILES string.

The test system of one assay is urinary bladder. The experiment in a line: In vivo rat cystometry model, 0.2% acetic acid infusion, intravenous drug. Conditions: 10 mg/kg i.v. The method, then: The rats were anesthetized with urethane at 1.2 g/kg i.p. in 5 ml/kg. A polyethylene catheter (PE50) was implanted into the bladder for saline or acetic acid infusion through a 3-way stopcock. A pressure transducer was connected for measurements of intravesical pressure. Warm (37° C.) saline was infused into the bladder at a constant rate of […] (1 ml/hour) until cystometry became stable (no less than 60 minutes). Thereafter, 0.2% acetic acid was infused into the urinary bladder. Aspirin (10 mg/kg i.v.) and vehicle were administered intravenously via a PE-10 catheter in the femoral vein at 5 minutes after infusion of acetic acid was started and at the end of first micturition cycle. Dunnett's test was applied for comparison between the time before and after test substance or vehicle treatment. To ascertain differences between the test substance and the vehicle control group, an unpaired Student's t test was used. Differences are considered significant at […].

Assay [1] concerns Isolated bladder smooth muscle strips. The assay can be described thus: Bladder strip contractility (bradykinin-induced contraction), Examples I and II. The class given is cell-based, rat.
The subject of the next assay is PGE2. The settings on record: 10 μM perfusion 60 min then saline 30 min; bladders harvested at 90 min.
Assay [2] concerns overactive bladder function. The assay can be described thus: Acetic-acid overactive bladder model, intravesical local delivery, cystometry, Example V. Conditions: 0.2% acetic acid.
Procedure: In this model, acute inflammation of the bladder is produced by using 0.2% acetic acid in saline as the bladder perfusion fluid and cystometry under anesthesia is performed after a recovery period from the surgical procedure.
The animals were anesthesized and bladder catheters were surgically implanted to allow irrigation of the test agents. The following cystometry parameters were monitored: intercontraction interval (ICI), trigger pressure (TP), micturition pressure (MP) and micturition volume (MV) using a Med Associates Cystometry Station and software program. […] Following the saline period, the rat bladder was infused with test agent in saline containing 0.2% acetic acid for 20 min followed by the collection of 7 representative ICI intervals for analysis.
Five to seven animals were normally tested in each group. Acidified saline served as the control. All infusion solutions were prepared fresh on the day of the experiment before use.

With `CC(=O)Oc1ccccc1C(=O)O` [aspirin], in the assay on urinary bladder, the bladder capacity result is “parallel changes”, the “effect on acetic acid induced reduction in the intercontraction interval (ICI)” value is “gradual time-dependent inhibition”, the micturition pressure result is recorded as “not affected” and the threshold pressure result is “not affected”.
With `CC(C(=O)O)c1cccc(C(=O)c2ccccc2)c1` (stereo not drawn) [Ketoprofen, 3-benzoyl-α-methylbenzeneacetic acid], the “effect on maximal tension” value in assay [1] (ketoprofen 0.25-10 μM) was “no apparent effect”. For the same compound, the “bladder tissue PGE2 levels” value with PGE2 came out at 83±22 pg/mg protein.
Regarding `COC(=O)C1=C(C)NC(C)=C(C(=O)OC)C1c1ccccc1[N+](=O)[O-]` [Nifedipine, 1,4-dihydro-2,6-dimethyl-4-(2-nitrophenyl)-3,5-pyridinedicarboxylic acid dimethyl ester], in assay [1] (single agents, 10 min incubation), the “type of antagonism upon bradykinin-induced contractile responses” value was “noncompetitive”. The “concentration of maximal effects on shortening of the ICI” value in assay [2] (in irrigation buffer, female rats) is around 1 µM. In assay [2] (nifedipine above 1 μM), the “ICI plateau at higher concentrations, of baseline” value is listed as “approximately 75%”.
